Literature values in patent US12678402B2 (Nasus Pharma Ltd., priority 2020, dated 2026).
Read-outs that look alike come from different tables or passages of the source.

What was measured:
[1] = IN 1 mg up to 12 mg, different indications and formulations
nasal epithelia = conditions: in vitro; dissolves in nasal fluid

## CNC[C@H](O)c1ccc(O)c(O)c1 [Epinephrine]
0.3 mg IM
  Cbaseline Mean (±SD): 35 ± 23 pg/mL
  Tmax: 1.12 ± 0.717 h
5 mg IN
  Cbaseline Mean (±SD): 8 ± 6 pg/mL
IN epinephrine in saline formulation, healthy adults
  adverse events observed: transient tremor was observed in one subject and palpitation in two subjects
IN epinephrine in saline formulation, healthy adults, at Tmax
  heart rate and blood pressure changes: Increase in heart rate, and diastolic and systolic blood pressures occurred at Tmax. in most subjects
After IN epinephrine administration, healthy adults
  serious adverse effects: No serious adverse effects were observed
[1]
  serious adverse events: no serious adverse events
Nasal epithelia
  absorption after deposition of the powder in the nasal cavity: rapidly absorbed through the nasal epithelia
